Data as given in article PMC5076878 (Bioorganic & medicinal chemistry letters, 2016).
Values joined by “and” are separate entries in the source; they are usually repeats but may differ in a detail not shown here. Equal entries are not always repeated.

Target: T1, human LAT1 (Homo sapiens, UniProt Q01650)
Assay: not given
Format: cell-based
Conditions: compound at 200 μM; pre-loaded HEK-hLAT1 cells; at least triplicate

T1 sequence (Q01650 whole entry): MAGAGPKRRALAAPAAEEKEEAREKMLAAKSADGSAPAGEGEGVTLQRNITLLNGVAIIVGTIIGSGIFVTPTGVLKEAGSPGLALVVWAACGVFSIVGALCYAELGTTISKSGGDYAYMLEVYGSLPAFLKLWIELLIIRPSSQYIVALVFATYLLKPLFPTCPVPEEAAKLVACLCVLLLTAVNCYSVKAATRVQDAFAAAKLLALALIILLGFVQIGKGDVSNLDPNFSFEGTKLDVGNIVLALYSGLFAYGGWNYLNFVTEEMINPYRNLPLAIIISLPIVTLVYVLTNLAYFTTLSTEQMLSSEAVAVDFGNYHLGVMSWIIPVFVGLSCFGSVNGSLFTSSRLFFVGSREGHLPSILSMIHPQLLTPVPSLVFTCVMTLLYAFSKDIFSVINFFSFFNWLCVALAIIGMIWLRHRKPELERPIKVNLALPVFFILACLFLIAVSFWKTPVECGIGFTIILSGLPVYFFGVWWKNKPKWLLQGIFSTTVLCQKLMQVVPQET
T1 sequence (P08195 102-630 partner): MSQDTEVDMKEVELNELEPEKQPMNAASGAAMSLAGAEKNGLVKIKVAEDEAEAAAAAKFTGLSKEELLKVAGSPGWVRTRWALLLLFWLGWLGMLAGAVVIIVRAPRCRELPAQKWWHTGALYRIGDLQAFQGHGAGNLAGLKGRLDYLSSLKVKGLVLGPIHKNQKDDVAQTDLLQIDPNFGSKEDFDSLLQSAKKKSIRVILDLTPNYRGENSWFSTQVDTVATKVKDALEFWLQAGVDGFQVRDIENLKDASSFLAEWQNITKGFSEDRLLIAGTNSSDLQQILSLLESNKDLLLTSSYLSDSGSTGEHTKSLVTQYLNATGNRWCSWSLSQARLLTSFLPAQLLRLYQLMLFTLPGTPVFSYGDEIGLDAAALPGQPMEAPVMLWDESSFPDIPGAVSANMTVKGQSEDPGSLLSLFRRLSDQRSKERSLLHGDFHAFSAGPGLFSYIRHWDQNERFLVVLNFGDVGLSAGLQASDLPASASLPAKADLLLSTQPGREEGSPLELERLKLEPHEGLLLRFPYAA

| Structure (SMILES) | Efflux Rate of [3H]-gabapentin |
| --- | --- |
| N[C@@H](Cc1ccccc1)C(=O)O [Compound 1a, phenylalanine, reference compound] | 3.6 fmol/min and 3.6 ± 0.7 fmol/min |
| N[C@@H](Cc1c[nH]c2ccccc12)C(=O)O [Compound 1d, tryptophan, reference compound] | 1.6 ± 0.3 fmol/min |
| CC[C@H](C)[C@H](N)C(=O)O [Compound 1f, isoleucine, reference compound] | 2.5 ± 0.1 fmol/min |
| CSCC[C@H](N)C(=O)O [Compound 1g, methionine, reference compound] | 2.4 ± 0.1 fmol/min |
| N=C(N)NCCC[C@H](N)C(=O)O [Compound 1i, reference compound] | 0.75 ± 0.1 fmol/min |
| CONC(=O)[C@@H](N)CC(C)C.Cl [Compound 9e] | 2.1 fmol/min and 2.1 ± 0.2 fmol/min |
| N[C@@H](Cc1ccccc1)c1nnn[nH]1 [Compound 11] | 0.61 ± 0.01 fmol/min |

Now from value to compound:

| Efflux Rate of [3H]-gabapentin | Structure (SMILES) |
| --- | --- |
| 0.61 ± 0.06 fmol/min | CS(=O)(=O)NC(=O)[C@@H](N)Cc1ccccc1 [Compound 10a] |
| 0.63 ± 0.03 fmol/min | CS(=O)(=O)NC(=O)[C@@H](N)Cc1ccc(O)cc1 [Compound 10b] |
| 1.0 ± 0.1 fmol/min | N[C@@H](Cc1ccc(O)cc1)C(=O)NO [Compound 12b] |
| 1.0 ± 0.1 fmol/min | N[C@@H](Cc1c[nH]c2ccccc12)C(=O)NO [Compound 12d] |
| 1.5 fmol/min and 1.5 ± 0.1 fmol/min | CC(C)C[C@H](N)C(=O)NO.Cl [Compound 12e] |
| 1.5 fmol/min and 1.5 ± 0.2 fmol/min | CC[C@H](C)[C@H](N)C(=O)NO.Cl [Compound 12f] |
| 1.1 ± 0.01 fmol/min | CSCC[C@H](N)C(=O)NO.Cl [Compound 12g] |
| 0.70 ± 0.1 fmol/min | NCC(=O)NO [Compound 12h] |
| 0.69 fmol/min and 0.69 ± 0.01 fmol/min | CC(C)C[C@H](N)C(N)=O.Cl [Compound 13e, leucinamide] |

Target: T1, human LAT1
Assay: cis-inhibition assay: inhibition of [3H]-gabapentin uptake into HEK-hLAT1 cells
Format: cell-based
Conditions: read-out: % Inhibition of [3H]-gabapentin uptake

| Structure (SMILES) | inhibition at 200 µM |
| --- | --- |
| N[C@@H](Cc1ccccc1)C(=O)O [Compound 1a, phenylalanine, reference compound] | 85 ± 0.6% |
| N[C@@H](Cc1ccc(O)cc1)C(=O)O [Compound 1b, tyrosine] | 68 ± 0.5% |
| N[C@@H](Cc1c[nH]c2ccccc12)C(=O)O [Compound 1d, tryptophan, reference compound] | 79 ± 0.6% |
| N=C(N)NCCC[C@H](N)C(=O)O [Compound 1i, reference compound] | 49 ± 2% |
